Data from ChEMBL document CHEMBL3885861, “Open TG-GATES”.

Organism: Rattus norvegicus
Assay: Open TG-GATES - Regimen: Daily Repeat
Assay type: toxicity, organism-based, Sprague-Dawley
Set-up: regimen Daily Repeat, gender Male, age 6 weeks
Settings: in vivo, po, 300 mg/kg, route gavage, dose level Middle; for APTT / Bas / Eos / Fbg / Hb / Ht / Lym / MCH / MCHC / MCV / Mono / Neu / PT / Plat / RBC / Ret / WBC: tissue Blood; for KIDNEY_L / KIDNEY_R / KIDNEY_TOTAL: tissue Kidney; for LIVER: tissue Liver; for A/G / ALP / ALT / AST / BUN / CRE / Ca / Cl / DBIL / GLC / IP / K / LDH / Na / PL / RALB / TBIL / TC / TG / TP / gamma-GTP: tissue Plasma

O=C(OC[C@H]1O[C@@H](OC(=O)c2cc(O)c(O)c(OC(=O)c3cc(O)c(O)c(O)c3)c2)[C@H](OC(=O)c2cc(O)c(O)c(OC(=O)c3cc(O)c(O)c(O)c3)c2)[C@@H](OC(=O)c2cc(O)c(O)c(OC(=O)c3cc(O)c(O)c(O)c3)c2)[C@@H]1OC(=O)c1cc(O)c(O)c(OC(=O)c2cc(O)c(O)c(O)c2)c1)c1cc(O)c(O)c(OC(=O)c2cc(O)c(O)c(O)c2)c1 [TANNIC ACID]
TERMINAL_BW (72 h, time 3 day): 215.8 g
APTT (72 h, time 3 day): 16.1 s
Bas (72 h, time 3 day): 0%
Eos (72 h, time 3 day): 1%
Fbg (72 h, time 3 day): 240.8 mg/dL
Hb (72 h, time 3 day): 13.1 g/dL
Ht (72 h, time 3 day): 39.3%
Lym (72 h, time 3 day): 76.8%
MCH (72 h, time 3 day): 21.6 pg
MCHC (72 h, time 3 day): 33.3%
MCV (72 h, time 3 day): 64.9 fL
Mono (72 h, time 3 day): 10%
Neu (72 h, time 3 day): 12.4%
PT (72 h, time 3 day): 11.5 s
Plat (72 h, time 3 day): 118.8 x10_4/uL
RBC (72 h, time 3 day): 606.2 x10_4/ul
Ret (72 h, time 3 day): 7.7%
WBC (72 h, time 3 day): 77.2 x10_2/uL
KIDNEY_L (72 h, time 3 day): 1 g
KIDNEY_R (72 h, time 3 day): 1 g
KIDNEY_TOTAL (72 h, time 3 day): 1.9 g
LIVER (72 h, time 3 day): 10.9 g
A/G (72 h, time 3 day): 2.1
ALP (72 h, time 3 day): 808.4 IU/L
ALT (72 h, time 3 day): 35 IU/L
AST (72 h, time 3 day): 62.8 IU/L
BUN (72 h, time 3 day): 17.8 mg/dL
CRE (72 h, time 3 day): 0.5 mg/dL
Ca (72 h, time 3 day): 10.9 mg/dL
Cl (72 h, time 3 day): 103.4 meq/L
DBIL (72 h, time 3 day): 0.004 mg/dL
GLC (72 h, time 3 day): 207.6 mg/dL
IP (72 h, time 3 day): 8.7 mg/dL
K (72 h, time 3 day): 4.6 meq/L
LDH (72 h, time 3 day): 83 IU/L
Na (72 h, time 3 day): 139 meq/L
PL (72 h, time 3 day): 159.2 mg/dL
RALB (72 h, time 3 day): 3.8 g/dL
TBIL (72 h, time 3 day): 0.3 mg/dL
TC (72 h, time 3 day): 84.6 mg/dL
TG (72 h, time 3 day): 109.2 mg/dL
TP (72 h, time 3 day): 5.6 g/dL
gamma-GTP (72 h, time 3 day): 0.6 IU/L
TERMINAL_BW ([…], time 7 day): 250.4 g
TERMINAL_BW ([…], time 14 day): 315.8 g
TERMINAL_BW ([…], time 28 day): 397.8 g
APTT ([…], time 7 day): 17.1 s
Bas ([…], time 7 day): 0%
Eos ([…], time 7 day): 1.4%
Fbg ([…], time 7 day): 226 mg/dL
Hb ([…], time 7 day): 13.4 g/dL
Ht ([…], time 7 day): 40.6%
Lym ([…], time 7 day): 81.2%
MCH ([…], time 7 day): 21.3 pg
MCHC ([…], time 7 day): 33.1%
MCV ([…], time 7 day): 64.2 fL
Mono ([…], time 7 day): 4.8%
Neu ([…], time 7 day): 12.8%
PT ([…], time 7 day): 10.9 s
Plat ([…], time 7 day): 123.2 x10_4/uL
RBC ([…], time 7 day): 631.8 x10_4/ul
Ret ([…], time 7 day): 6.5%
WBC ([…], time 7 day): 103.7 x10_2/uL
APTT ([…], time 14 day): 16.7 s
Bas ([…], time 14 day): 0%
Eos ([…], time 14 day): 1.2%
Fbg ([…], time 14 day): 261.2 mg/dL
Hb ([…], time 14 day): 13.7 g/dL
Ht ([…], time 14 day): 41.1%
Lym ([…], time 14 day): 75.4%
MCH ([…], time 14 day): 20.7 pg
MCHC ([…], time 14 day): 33.4%
MCV ([…], time 14 day): 62.1 fL
Mono ([…], time 14 day): 8%
Neu ([…], time 14 day): 15.4%
PT ([…], time 14 day): 11.5 s
Plat ([…], time 14 day): 123.3 x10_4/uL
RBC ([…], time 14 day): 662.6 x10_4/ul
Ret ([…], time 14 day): 5.5%
WBC ([…], time 14 day): 101.9 x10_2/uL
APTT ([…], time 28 day): 16.6 s
Bas ([…], time 28 day): 0%
Eos ([…], time 28 day): 1.8%
Fbg ([…], time 28 day): 232.8 mg/dL
Hb ([…], time 28 day): 15 g/dL
Ht ([…], time 28 day): 45.2%
Lym ([…], time 28 day): 77.8%
MCH ([…], time 28 day): 19.6 pg
MCHC ([…], time 28 day): 33.2%
MCV ([…], time 28 day): 59.1 fL
Mono ([…], time 28 day): 6.2%
Neu ([…], time 28 day): 14.5%
PT ([…], time 28 day): 11.9 s
Plat ([…], time 28 day): 113.3 x10_4/uL
RBC ([…], time 28 day): 765.2 x10_4/ul
Ret ([…], time 28 day): 3%
WBC ([…], time 28 day): 112.2 x10_2/uL
KIDNEY_L ([…], time 7 day): 1 g
KIDNEY_R ([…], time 7 day): 1 g
KIDNEY_TOTAL ([…], time 7 day): 2.1 g
KIDNEY_L ([…], time 14 day): 1.4 g
KIDNEY_R ([…], time 14 day): 1.3 g
KIDNEY_TOTAL ([…], time 14 day): 2.7 g
KIDNEY_L ([…], time 28 day): 1.4 g
KIDNEY_R ([…], time 28 day): 1.4 g
KIDNEY_TOTAL ([…], time 28 day): 2.9 g
LIVER ([…], time 7 day): 12.2 g
LIVER ([…], time 14 day): 14.7 g
LIVER ([…], time 28 day): 17 g
A/G ([…], time 7 day): 1.6
ALP ([…], time 7 day): 926.8 IU/L
ALT ([…], time 7 day): 35.8 IU/L
AST ([…], time 7 day): 62.2 IU/L
BUN ([…], time 7 day): 19.4 mg/dL
CRE ([…], time 7 day): 0.6 mg/dL
Ca ([…], time 7 day): 10.8 mg/dL
Cl ([…], time 7 day): 103 meq/L
DBIL ([…], time 7 day): 0.016 mg/dL
GLC ([…], time 7 day): 205.6 mg/dL
IP ([…], time 7 day): 7.9 mg/dL
K ([…], time 7 day): 4.5 meq/L
LDH ([…], time 7 day): 98.6 IU/L
Na ([…], time 7 day): 137.4 meq/L
PL ([…], time 7 day): 154.6 mg/dL
RALB ([…], time 7 day): 3.7 g/dL
TBIL ([…], time 7 day): 0.4 mg/dL
TC ([…], time 7 day): 81.2 mg/dL
TG ([…], time 7 day): 119.6 mg/dL
TP ([…], time 7 day): 6.1 g/dL
gamma-GTP ([…], time 7 day): 1.6 IU/L
A/G ([…], time 14 day): 1.7
ALP ([…], time 14 day): 702.2 IU/L
ALT ([…], time 14 day): 32.4 IU/L
AST ([…], time 14 day): 62.8 IU/L
BUN ([…], time 14 day): 20 mg/dL
CRE ([…], time 14 day): 0.6 mg/dL
Ca ([…], time 14 day): 10.7 mg/dL
Cl ([…], time 14 day): 103.4 meq/L
DBIL ([…], time 14 day): 0.008 mg/dL
GLC ([…], time 14 day): 202.4 mg/dL
IP ([…], time 14 day): 8.3 mg/dL
K ([…], time 14 day): 4.4 meq/L
LDH ([…], time 14 day): 83.4 IU/L
Na ([…], time 14 day): 139.8 meq/L
PL ([…], time 14 day): 151.6 mg/dL
RALB ([…], time 14 day): 3.8 g/dL
TBIL ([…], time 14 day): 0.3 mg/dL
TC ([…], time 14 day): 79.6 mg/dL
TG ([…], time 14 day): 116.8 mg/dL
TP ([…], time 14 day): 6 g/dL
gamma-GTP ([…], time 14 day): 1.4 IU/L
A/G ([…], time 28 day): 1.8
ALP ([…], time 28 day): 534 IU/L
ALT ([…], time 28 day): 32.2 IU/L
AST ([…], time 28 day): 55.5 IU/L
BUN ([…], time 28 day): 20 mg/dL
CRE ([…], time 28 day): 0.6 mg/dL
Ca ([…], time 28 day): 11 mg/dL
Cl ([…], time 28 day): 105.8 meq/L
DBIL ([…], time 28 day): 0.01 mg/dL
GLC ([…], time 28 day): 201.8 mg/dL
IP ([…], time 28 day): 7.9 mg/dL
K ([…], time 28 day): 4.5 meq/L
LDH ([…], time 28 day): 83.2 IU/L
Na ([…], time 28 day): 139.5 meq/L
PL ([…], time 28 day): 141.8 mg/dL
RALB ([…], time 28 day): 4 g/dL
TBIL ([…], time 28 day): 0.3 mg/dL
TC ([…], time 28 day): 70.2 mg/dL
TG ([…], time 28 day): 133.8 mg/dL
TP ([…], time 28 day): 6.2 g/dL
gamma-GTP ([…], time 28 day): 0.5 IU/L
